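Interpolation was linear, between the two tested concentrations surrounding the appropriate level; five concentrations were tested over 48 hours in 96-well plates. Here, GI50 denotes the concentration required for 50% inhibition of growth.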 The source made the active and inactive calls. Rule as the data show it: active = GI50 up to about 1.1 µM and inactive = higher.
Assays:
Experiment in all cases: DTP human tumour cell line panel, 48 h
MDA-N = test system: MDA-N
MOLT-4 = test system: MOLT-4
SW-620 = test system: SW-620
T47D = test system: T47D
A498 = test system: A498
SF-268 = test system: SF-268
PC-3 = test system: PC-3
HCC 2998 = test system: HCC 2998
SNB-19 = test system: SNB-19
COLO 205 = test system: COLO 205
RXF 393 = test system: RXF 393
786-0 = test system: 786-0
HL-60 = test system: HL-60
NCI-H23 = test system: NCI-H23
MDA-MB-435 = test system: MDA-MB-435
MDA-MB-231 = test system: MDA-MB-231
HT-29 = test system: HT-29
NCI-H460 = test system: NCI-H460
DU-145 = test system: DU-145
SF-539 = test system: SF-539
SN12C = test system: SN12C
SK-MEL-2 = test system: SK-MEL-2
SNB-75 = test system: SNB-75
RPMI-8226 = test system: RPMI-8226
SK-OV-3 = test system: SK-OV-3
NCI-H522 = test system: NCI-H522
Hs-578T = test system: Hs-578T
HCT-116 = test system: HCT-116
HOP-92 = test system: HOP-92
A549 = test system: A549
U-251 = test system: U-251
ACHN = test system: ACHN
SK-MEL-5 = test system: SK-MEL-5
NCI/ADR-RES = test system: NCI/ADR-RES
Malme-3M = test system: Malme-3M
UACC-62 = test system: UACC-62
OVCAR-8 = test system: OVCAR-8
HOP-62 = test system: HOP-62
M14 = test system: M14
SF-295 = test system: SF-295
SR = test system: SR
CCRF-CEM = test system: CCRF-CEM
OVCAR-5 = test system: OVCAR-5
BT-549 = test system: BT-549
KM12 = test system: KM12
IGROV-1 = test system: IGROV-1
CAKI-1 = test system: CAKI-1
TK-10 = test system: TK-10
K562 = test system: K562
OVCAR-3 = test system: OVCAR-3
HCT-15 = test system: HCT-15
SK-MEL-28 = test system: SK-MEL-28
UO-31 = test system: UO-31
UACC-257 = test system: UACC-257
EKVX = test system: EKVX
LOX IMVI = test system: LOX IMVI
MCF7 = test system: MCF7

`CCCC(=O)OC(OC(=O)CCC)c1ccc([N+](=O)[O-])o1` was tested, and the GI50 (MDA-N) was 20.1 µM (inactive), the GI50 (MOLT-4) was 31.1 µM (inactive) and the GI50 (SW-620) was 20 µM (inactive). The GI50 (T47D) was 21.4 µM (inactive), the GI50 (A498) was > 100 µM (inactive) and the GI50 (SF-268) was 65.6 µM (inactive). For the same molecule, the GI50 (PC-3) was 61.7 µM (inactive), the GI50 (HCC 2998) was 15.9 µM (inactive) and the GI50 (SNB-19) was > 100 µM (inactive). For the same molecule, the GI50 (COLO 205) was 23.3 µM (inactive), the GI50 (RXF 393) was 17.2 µM (inactive) and the GI50 (786-0) was 18.3 µM (inactive). For the same molecule, the GI50 (HL-60) was 26.3 µM (inactive), the GI50 (NCI-H23) was 22.1 µM (inactive) and the GI50 (MDA-MB-435) was 20.7 µM (inactive). For the same molecule, the GI50 (MDA-MB-231) was 27.5 µM (inactive), the GI50 (HT-29) was 22.6 µM (inactive) and the GI50 (NCI-H460) was > 100 µM (inactive). For the same molecule, the GI50 (DU-145) was 36.7 µM (inactive), the GI50 (SF-539) was 35.7 µM (inactive) and the GI50 (SN12C) was 17.3 µM (inactive). For the same molecule, the GI50 (SK-MEL-2) was 22.8 µM (inactive), the GI50 (SNB-75) was > 100 µM (inactive) and the GI50 (RPMI-8226) was 22.6 µM (inactive). For the same molecule, the GI50 (SK-OV-3) was > 100 µM (inactive), the GI50 (NCI-H522) was 13.4 µM (inactive) and the GI50 (Hs-578T) was 35.5 µM (inactive). For the same molecule, the GI50 (HCT-116) was 16.9 µM (inactive), the GI50 (HOP-92) was 22.9 µM (inactive) and the GI50 (A549) was > 100 µM (inactive). The GI50 (U-251) was 34.3 µM (inactive), the GI50 (ACHN) was 20.5 µM (inactive) and the GI50 (SK-MEL-5) was 32.4 µM (inactive). The GI50 (NCI/ADR-RES) was 39.2 µM (inactive), the GI50 (Malme-3M) was 19.2 µM (inactive) and the GI50 (UACC-62) was 20.9 µM (inactive). For the same molecule, the GI50 (OVCAR-8) was 32.2 µM (inactive), the GI50 (HOP-62) was 62.8 µM (inactive) and the GI50 (M14) was 19.8 µM (inactive). The GI50 (SF-295) was > 100 µM (inactive), the GI50 (SR) was 18 µM (inactive) and the GI50 (CCRF-CEM) was 28.2 µM (inactive). For the same molecule, the GI50 (OVCAR-5) was 21.8 µM (inactive), the GI50 (BT-549) was 47.2 µM (inactive) and the GI50 (KM12) was 37.6 µM (inactive). For the same molecule, the GI50 (IGROV-1) was 14.8 µM (inactive), the GI50 (CAKI-1) was 17.7 µM (inactive) and the GI50 (TK-10) was 19.4 µM (inactive). For the same molecule, the GI50 (K562) was 34 µM (inactive), the GI50 (OVCAR-3) was 20.9 µM (inactive) and the GI50 (HCT-15) was 15.7 µM. The GI50 (SK-MEL-28) was 20.4 µM (inactive), the GI50 (UO-31) was 21.1 µM (inactive) and the GI50 (UACC-257) was 21.4 µM (inactive). The GI50 (EKVX) was 26.1 µM (inactive), the GI50 (LOX IMVI) was 21.7 µM (inactive) and the GI50 (MCF7) was 16.9 µM (inactive).
